The sequences below were run on PBMC (assay: ELISPOT (IFNγ, IL-5, IL-10, IL-17, IL-21) of PBMC expanded 14 days with Bla g extract, then stimulated with peptides or peptide pools). Conditions: non-redundant epitopes; sensitized donors.
Type: cell-based, human
Parameters: key to Average Magnitude of Response: spot forming cells (SFC) per 10^6 PBMC; Response Rate per Subject: unit not given here
Method: PBMC Isolation and Cell Cultures: PBMC (peripheral blood mononuclear cells) were isolated from 450 mL (one unit) of blood by density gradient centrifugation as described and cryopreserved. For in vitro expansion of PBMC for peptide screening, cells were cultured in RPMI1640 (Omega Scientific)+5% human AB serum (Gemini Bioscience), GlutaMAX (Gibco), and penicillin/streptomycin (Omega Scientific) at 2×10^6 per mL, stimulated with 10 ug/mL Bla g extract (Greer), and incubated at 37° C. in 5% CO2. Every three days, IL-2 and IL-7 (10 U/mL) were added to the cultures. Cells were harvested for peptide screening at day 14.
ELISPOT Assays: Production of IFNγ, IL-5, IL-17, IL-10, and IL-21 (as representative of TH1, TH2, TH17, TR1, and […], respectively) in response to peptide stimulation was measured by ELISPOT as described previously. […] In brief, 1×10^5 cells per well were incubated with peptide, peptide pool, or Bla g extract (10, 5, and 10 ug/ml, respectively) on anti-lymphokine antibody coated ELISPOT plates (Millipore #MSIPS4510) for 22 hours. Subsequently, secondary anti-lymphokine antibodies were added and incubated for 2 hours, washed, and avidin-peroxidase complex added for 1 hour. Plates were washed and spots developed with 3-amino-9-ethylcarbazole (Sigma #A6926) and Vector Blue (Vector #SK-5300) for IFNγ/IL-5 and IL-10/IL-17 dual plates or TMB (Sigma #T0565) for single IL-21. Criteria for peptide pool positivity were at least 100 spot forming cells (SFC) per 10^6 PBMC, p<0.05, and stimulation index≥2. Criteria for peptide positivity were identical except with a threshold of 20 SFCs.
We synthetized overlapping peptide sets of 15 amino acids in length overlapping by 10 residues and covering the entire sequence of known Bla g Allergens, i.e. Bla g 1-7, 9 and 11, referred from hereafter collectively as BLAGA. A total of 809 BLAGA peptides were arranged in pools, encompassing on average 20 peptides.
To assess T cell reactivity, we utilized a strategy applied to the definition of epitopes from various allergen sources^15,16 utilizing in vitro stimulation with allergen extracts. Here, PBMC from each subject were stimulated in vitro with Bla g extract. After 14 days, pools of overlapping 15-mer peptides from the BLAGA were tested for responses, and positive pools deconvoluted to identify the specific epitopes. As readout, we utilized ELISPOT assays specific for IL-5, IFNγ, IL-10, IL-17 and IL-21, chosen as representative of TH2, TH1, TR1, TH17 and TFH reactivity, respectively.
For LKNYQLDSELRIKAF, the “Average Magnitude of Response” value was 3.2 and the “Response Rate per Subject” value was 1.4. In the case of LKYFNMGVQKFWAFD, the “Average Magnitude of Response” value is reported as 19.8 and the “Response Rate per Subject” value is reported as 8.6. LNAIEFINNIHDLLG was tested, and the “Average Magnitude of Response” value was 8.8 and the “Response Rate per Subject” value was 2.9. LNDYILPAPYEIYPW was tested, and the “Average Magnitude of Response” value was 3.0 and the “Response Rate per Subject” value was 2.9. With “LNIFTNNLGRINTHV (listed as Blattella germanica)” the “Average Magnitude of Response” value was 57.6 and the “Response Rate per Subject” value was 4.3. In the case of LNQEAHYQFDSIHKF, the “Average Magnitude of Response” value is reported as 22.6 and the “Response Rate per Subject” value is reported as 2.9. With LNTYYSYYYFNYPTF the “Average Magnitude of Response” value was 4.1 and the “Response Rate per Subject” value was 2.9. LRLSEHLDYVKNLTV was tested, and the “Average Magnitude of Response” value was 3.1 and the “Response Rate per Subject” value was 1.4. With LTVFDSTSCNVVVAS the “Average Magnitude of Response” value was 4.0 and the “Response Rate per Subject” value was 2.9. In the case of LVFLRNAKIELKPNQ, the “Average Magnitude of Response” value is reported as 4.0 and the “Response Rate per Subject” value is reported as 2.9. In the case of LVYPTSLGFPLKLVL, the “Average Magnitude of Response” value is reported as 4.4 and the “Response Rate per Subject” value is reported as 2.9. For LWEINMIKAIISQLQ, the “Average Magnitude of Response” value was 3.5 and the “Response Rate per Subject” value was 2.9. With MAPSYKLTYCPVKAL the “Average Magnitude of Response” value was 8.8 and the “Response Rate per Subject” value was 4.3. For MGVQKFWAFDNTTFS, the “Average Magnitude of Response” value was 7.3 and the “Response Rate per Subject” value was 7.1. In the case of “MIVDTISDFRAAIAN (listed as Blattella germanica)”, the “Average Magnitude of Response” value is reported as 91.4 and the “Response Rate per Subject” value is reported as 7.1. MNITGSINLMFSQMY was tested, and the “Average Magnitude of Response” value was 7.6 and the “Response Rate per Subject” value was 5.7. For NAIEFLNNIHDLLGI, the “Average Magnitude of Response” value was 3.0 and the “Response Rate per Subject” value was 1.4. For NASAVIQEFLKTYKK, the “Average Magnitude of Response” value was 5.0 and the “Response Rate per Subject” value was 2.9. For “NDIEKRVPFSHDDRL (listed as Blattella germanica)”, the “Average Magnitude of Response” value was 72.8 and the “Response Rate per Subject” value was 15.7. “NGGYLAAGKLTWADF (listed as Blattella germanica)” was tested, and the “Average Magnitude of Response” value was 58.5 and the “Response Rate per Subject” value was 5.7. In the case of “NIACLLHNKYDSTKS (listed as Blattella germanica)”, the “Average Magnitude of Response” value is reported as 61.0 and the “Response Rate per Subject” value is reported as 2.9. With NLEIDMIVDTISDFR the “Average Magnitude of Response” value was 19.1 and the “Response Rate per Subject” value was 2.9. NTTFSNASAVIQEFL was tested, and the “Average Magnitude of Response” value was 4.2 and the “Response Rate per Subject” value was 5.7. For NVIYSQNSFLPRATT, the “Average Magnitude of Response” value was 3.8 and the “Response Rate per Subject” value was 1.4. For “NYAIVEGCPAAANGH (listed as Blattella germanica)”, the “Average Magnitude of Response” value was 64.6 and the “Response Rate per Subject” value was 1.4. For PAIKAWVAKRPPTDL, the “Average Magnitude of Response” value was 18.7 and the “Response Rate per Subject” value was 10.0. “PAYFKMNSPSLWKYN (listed as Blattella germanica)” was tested, and the “Average Magnitude of Response” value was 56.1 and the “Response Rate per Subject” value was 4.3. With “PKSMLLNIFTNNLGR (listed as Blattella germanica)” the “Average Magnitude of Response” value was 52.5 and the “Response Rate per Subject” value was 7.1. PLKKETIPYYTKKFD was tested, and the “Average Magnitude of Response” value was 14.2 and the “Response Rate per Subject” value was 5.7. With PNLKPSMPFGKTPVL the “Average Magnitude of Response” value was 4.2 and the “Response Rate per Subject” value was 2.9. In the case of PVDQIIAIATDYLAN, the “Average Magnitude of Response” value is reported as 7.5 and the “Response Rate per Subject” value is reported as 2.9. With QDVHKKLREWLSKNV the “Average Magnitude of Response” value was 8.5 and the “Response Rate per Subject” value was 1.4. For QIIAIATDYLANDAE, the “Average Magnitude of Response” value was 7.5 and the “Response Rate per Subject” value was 2.9. For QKGYMVSSMTDLWEA, the “Average Magnitude of Response” value was 13.9 and the “Response Rate per Subject” value was 8.6. QKKWDPLKKETIPYY was tested, and the “Average Magnitude of Response” value was 7.7 and the “Response Rate per Subject” value was 4.3. In the case of QPNLKALREKVLGLP, the “Average Magnitude of Response” value is reported as 6.5 and the “Response Rate per Subject” value is reported as 5.7. With QQFISSEMVEPKEAS the “Average Magnitude of Response” value was 6.8 and the “Response Rate per Subject” value was 2.9. In the case of QTHQSVAISRYLGKQ, the “Average Magnitude of Response” value is reported as 4.3 and the “Response Rate per Subject” value is reported as 4.3.

From patent publication US11505581B2, “Antigens and T cell epitopes from cockroach and methods of making and using same” (La Jolla Institute for Allergy and Immunology, priority 2015, dated 2022)
